Test results from patent publication US9029553B2, “2-anilino nicotinyl linked 2-amino benzothiazole conjugates and process for the preparation thereof” (Council of Scientific & Industrial Research, priority 2011, dated 2015).
pIC50: −log10 of the molar value.

Experiments:
topoisomerase II = assay: DNA topoisomerase-II inhibition assay; format: biochemical; conditions: 1 μM; etoposide 100 μM
Source text: DNA topoisomerases are nuclear enzymes capable of resolving the topology of DNA to allow its replication. So, proper relaxing is very important for successful replication cycle and thus for the cell survival. However, topoisomerases also serve as targets in the anticancer chemotherapy in which cell death serves an important purpose. Moreover, the topoisomerase targeting drugs can either be classified either topo posions, which act by stabilizing enzyme DNA cleavable complexes leading to DNA break or topo catalytic inhibitors, which act by stabilizing enzyme where both DNA strands remain intact and no DNA breaks occur. Importantly, all the topoisomerase inhibitors finally induce apoptosis. In the present study, all the five compounds 4-8 were first subjected to topoisomerase II inhibition assay.

[1] = test system: normal monkey kidney CV-1 cells; assay: MTT cytotoxicity in normal cells; format: cell-based; conditions: Primates
Description: These compounds were also evaluated for their cytotoxic potential in normal cells and for these purpose their IC50 value were also determine in normal monkey kidney CV-1 cells by using MTT method. The ratios of normal to cancer cells IC50 value were ranges from 10-1000 times (Table 5).

A549 = assay: SRB percentage growth inhibition (NCI protocol); format: cell-based; conditions: Homo sapiens, 48 hrs exposure
Description: (§1) 2-Anilino nicotinyl linked 2-amino benzothiazoles conjugates of formula 4-8 have been tested against ten and eleven human cancer cell lines for 10 and 1 μM respectively derived from nine cancer types (leukemia, non-small cell lung cancer, colon cancer, CNS cancer, melanoma, ovarian cancer, renal cancer, prostate cancer and breast cancer) as per NCI protocol. For each compound, percentage of growth inhibition was calculated for individual cell lines at a minimum of two concentrations (1 and 10 μM). A protocol of 48 hrs continuous drug exposure was used, and a sulforhodamine B (SRB) protein assay was used to estimate cell viability or growth. The percentage of growth inhibition compared with the control was calculated in table 1 and table 2.

SK-NS-H = assay: SRB percentage growth inhibition (NCI protocol); format: cell-based; conditions: Homo sapiens, SK-N-SH, 48 hrs exposure
Description: as §1

HEP-2 = assay: SRB percentage growth inhibition (NCI protocol); format: cell-based; conditions: Homo sapiens, 48 hrs exposure
Description: as §1

OVCAR-5 = assay: SRB percentage growth inhibition (NCI protocol); format: cell-based; conditions: Homo sapiens, 48 hrs exposure
Description: as §1

502713 = assay: SRB percentage growth inhibition (NCI protocol); format: cell-based; conditions: Homo sapiens, 48 hrs exposure
Description: as §1

PC-3 = assay: SRB percentage growth inhibition (NCI protocol); format: cell-based; conditions: Homo sapiens, 48 hrs exposure
Description: as §1

DU145 = assay: SRB percentage growth inhibition (NCI protocol); format: cell-based; conditions: Homo sapiens, DU-145, 48 hrs exposure
Description: as §1

IMR-32 = assay: SRB percentage growth inhibition (NCI protocol); format: cell-based; conditions: Homo sapiens, 48 hrs exposure
Description: as §1

IGR-OV-1 = assay: SRB percentage growth inhibition (NCI protocol); format: cell-based; conditions: Homo sapiens, IGROV-1, 48 hrs exposure
Description: as §1

Hela [2] = assay: SRB percentage growth inhibition (NCI protocol); format: cell-based; conditions: Homo sapiens, 48 hrs exposure
Description: as §1

Sw-620 = assay: SRB percentage growth inhibition (NCI protocol); format: cell-based; conditions: Homo sapiens, 48 hrs exposure
Description: as §1

SiHa [3] = assay: SRB percentage growth inhibition (NCI protocol); format: cell-based; conditions: Homo sapiens, 48 hrs exposure
Description: as §1

HCT-15 [4] = assay: SRB percentage growth inhibition (NCI protocol); format: cell-based; conditions: Homo sapiens, 48 hrs exposure
Description: as §1

MCF-7 [5] = assay: SRB percentage growth inhibition (NCI protocol); format: cell-based; conditions: Homo sapiens, MCF7, 48 hrs exposure
Description: as §1

HL-60 cells = assay: Flow cytometric analysis of reactive oxygen species (DCFH-DA); format: cell-based, human; conditions: 1 μM
Description: It was clear that these compounds were cytotoxic and induce apoptosis in HL-60 cells, now we have to found out the early events which were responsible for the induction of apoptosis like reactive oxygen species (ROS) or nitric oxide (NO) generation. Intracellular peroxide (ROS) in the cells was measured by DCFH-DA by using flow cytometry. Cells were incubated with tested compounds at 1 μM for 24 h in HL-60 cells and analyzed by flow cytometry after double staining with DCFH-DA (FIG. 7). Cells were analyzed for fluorescence intensity in FL1 vs. cell count. There was hardly any DCF fluorescence (ROS positive cells) in the untreated HL-60 cells, and this status remained unchanged when cells were incubated for 24 hr with compounds 7 and 8. […] Compounds 4 and 6 also induce the generation of peroxide in HL-60 cells (31 and 16% increase, respectively).

HL-60 = assay: MTT inhibition of cell proliferation; format: cell-based; conditions: Homo sapiens, 48 h
Source text: (§2) In order to determine the mode of action of cell death in cancer cells, first we explored the cytotoxic potential of different structural analogs of benzothiazoles on different human cancer cell lines. […] These compounds have limited or no cytotoxicity to cervical cancer SiHa, HeLa cells, breast cancer MCF-7 cells and colon cancer HCT-15 cells.

Hela [6] = assay: MTT inhibition of cell proliferation; format: cell-based; conditions: Homo sapiens, 48 h
Source text: as §2

SiHa [7] = assay: MTT inhibition of cell proliferation; format: cell-based; conditions: Homo sapiens, 48 h
Source text: as §2

HCT-15 [8] = assay: MTT inhibition of cell proliferation; format: cell-based; conditions: Homo sapiens, 48 h
Source text: as §2

MCF-7 [9] = assay: MTT inhibition of cell proliferation; format: cell-based; conditions: Homo sapiens, MCF7, 48 h
Source text: as §2

[10] = test system: Ehrlich Ascites Carcinoma (EAC); assay: In vivo anticancer activity, Ehrlich ascites carcinoma; set-up: species or system Swiss mice; conditions: for No. of deaths / toxicity to animals: EAC mice
Description: Model: Ehrlich Ascites Carcinoma (EAC)
Ehrlich ascites carcinoma (EAC) cells were collected from the peritoneal cavity of the swiss mice harbouring 8-10 days old ascitic tumor. 1×10^7 EAC cells were injected intraperitoneally in Swiss mice selected for the experiment on day 0. The next day, animals were randomized and divided into different groups. The treatment groups contained 7 animals each and control group contained 10 animals. Treatment groups were treated with different doses of test substances intraperitoneally from day 1-9. One of the treatment group received 5-fluorouracil (20 mg/kg, i.p) and it served as positive control. The tumor bearing control group was similarly administered normal saline (0.2 ml, i.p.). On day 12, animals were sacrificed and ascitic fluid was collected from peritoneal cavity of each mouse for the evaluation of tumor growth. Percent tumor growth inhibition was calculated based on the total number of tumor cells present in the peritoneal cavity as on day 12 of the experiment using the following formula.

| Compound | topoisomerase-II inhibition (DNA relaxation) (topoisomerase II) | pIC50 [1] | inhibition at 1 µM (A549) [%] | inhibition at 10 µM (A549) [%] | inhibition at 10 µM (SK-NS-H) [%] | inhibition at 1 µM (HEP-2) [%] | inhibition at 10 µM (HEP-2) [%] | inhibition at 1 µM (OVCAR-5) [%] | inhibition at 10 µM (OVCAR-5) [%] | inhibition at 10 µM 502713 [%] | inhibition at 1 µM (PC-3) [%] | inhibition at 1 µM (DU145) [%] | inhibition at 10 µM (DU145) [%] | inhibition at 1 µM (IMR-32) [%] | inhibition at 10 µM (IMR-32) [%] | inhibition at 1 µM (IGR-OV-1) [%] | inhibition at 1 µM (Hela [2]) [%] | inhibition at 1 µM (Sw-620) [%] | inhibition at 10 µM (Sw-620) [%] | inhibition at 10 µM (SiHa [3]) [%] | further results |
| --- | --- | --- | --- | --- | --- | --- | --- | --- | --- | --- | --- | --- | --- | --- | --- | --- | --- | --- | --- | --- | --- |
| COc1ccc(Nc2ncccc2C(=O)Nc2nc3ccc([N+](=O)[O-])cc3s2)cc1 [Compound 5, N3-(6-nitro-1,3-benzothiazol-2-yl)-2-(4-methoxyanilino)nicotinamide] | more potent effect relative to etoposide | 5.00 | 27 | 3 | 64 | 38 | 5 | 31 | 52 | 59 | 21 | 53 | 32 | 53 | 55 | 27 | 7 | 15 | 64 | 66 | inhibition at 1 µM (HCT-15 [4]): 9%; inhibition at 10 µM (HCT-15 [4]): 47%; inhibition at 1 µM (MCF-7 [5]): 25%; increase in DCF positive cell population (ROS) (HL-60 cells; 24 h, HL-60, compared to control): ~44%; pIC50 (HL-60): 6.15; pIC50 (Hela [6]): < 4.00; pIC50 (SiHa [7]): 4.55; pIC50 (HCT-15 [8]): < 4.00; pIC50 (MCF-7 [9]): < 4.00; Growth Inhibition (%) ([10]; 5 mg/Kg i.p. day 1-9, read day 12): 20.90%; No. of deaths / toxicity to animals ([10]; 5 mg/Kg i.p.): 0/7; Growth Inhibition (%) ([10]; 30 mg/Kg i.p. day 1-9, read day 12): Intolerable; No. of deaths / toxicity to animals ([10]; 30 mg/Kg i.p.): toxic; No. of deaths / toxicity to animals ([10]; 30 mg/Kg i.p., listed as Comp 5): 7/7 |
| O=C(Nc1nc2ccc([N+](=O)[O-])cc2s1)c1cccnc1Nc1ccc(Cl)cc1Cl [Compound 7] | more potent effect relative to etoposide | 6.10 | 15 | 19 | 50 | 46 | 14 | 19 | 0 | 2 | 27 | 36 | 39 | 42 | 48 | 24 | 0 | 12 | 61 | 35 | inhibition at 1 µM (HCT-15 [4]): 4%; inhibition at 10 µM (HCT-15 [4]): 75%; inhibition at 1 µM (MCF-7 [5]): 80%; DCF fluorescence (ROS positive cells), in words (HL-60 cells; 24 hr, HL-60): unchanged; pIC50 (HL-60): 6.40; pIC50 (Hela [6]): < 4.00; pIC50 (SiHa [7]): < 4.30; pIC50 (HCT-15 [8]): < 4.00; pIC50 (MCF-7 [9]): < 4.00; Growth Inhibition (%) ([10]; 20 mg/Kg i.p. day 1-9, read day 12): 63.89%; No. of deaths / toxicity to animals ([10]; 20 mg/Kg i.p.): without any deaths; No. of deaths / toxicity to animals ([10]; 20 mg/Kg i.p., listed as Comp 7): 0/7; Growth Inhibition (%) ([10]; 40 mg/Kg i.p. day 1-9, read day 12): Intolerable; No. of deaths / toxicity to animals ([10]; 40 mg/Kg i.p.): 7/7 |
